The values that follow come from ChEMBL document CHEMBL1201862, “PubChem BioAssay data set” (2004).

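Cells were grown in 96-well plates and exposed to each compound for 48 hours at five concentrations; endpoints were interpolated linearly between bracketing concentrations, or set to the highest concentration if not reached. At the GI50, growth is halved.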 Activity calls are given as the source filed them. Rule as the data show it: active = GI50 up to about 1.1 µM and inactive = higher.

Test systems include SK-MEL-5; SR; LOX IMVI; NCI-H522; ACHN; CAKI-1; K562; RPMI-8226; EKVX; SK-OV-3; SF-268; SK-MEL-28; 786-0; SK-MEL-2; LXFL 529; M14; CCRF-CEM; SF-295; MDA-MB-435; Hs-578T.
Assay in all cases: DTP human tumour cell line panel, 48 h

With `CC(=O)Oc1ccc2c(c1)C(=O)c1nc(C)c(C)nc1C2=O`, the GI50 was 16.2 µM (inactive) with SK-MEL-5; 29.6 µM (inactive) in the test on SR; 39.4 µM (inactive) in the test with LOX IMVI; 50.6 µM (inactive) with NCI-H522; 48.4 µM (inactive) with ACHN; > 76.6 µM (inactive) in the test with CAKI-1. Besides, the GI50 is 47 µM (inactive) with K562; 39.8 µM (inactive) in the test with RPMI-8226; > 48.6 µM (inactive) in the test with EKVX; 71.8 µM (inactive) in the test with SK-OV-3; 94.2 µM (inactive) with SF-268; 46.1 µM (inactive) in the test with SK-MEL-28. The GI50 was 37.2 µM (inactive) in the test with 786-0; 39.6 µM (inactive) in the test on SK-MEL-2; > 51.8 µM (inactive) in the test on LXFL 529; 38.1 µM (inactive) in the test on M14; 35.4 µM (inactive) in the test on CCRF-CEM; 49.9 µM (inactive) in the test with SF-295.
Take `COC(=O)C1=C(C=O)C2C=CC1C2` (stereo unspecified): the GI50 with SK-MEL-5 is > 100 µM (inactive); in the test on SR it was > 56.6 µM (inactive); in the test with MDA-MB-435, > 100 µM (inactive); with LOX IMVI it was > 60.5 µM (inactive); in the test on NCI-H522, 44.5 µM (inactive); in the test on ACHN, > 67.9 µM (inactive). Also, the GI50 with CAKI-1 is 44.2 µM (inactive); in the test on K562, 34.2 µM (inactive); in the test with RPMI-8226, 51.1 µM (inactive); in the test with Hs-578T, > 100 µM (inactive); in the test on EKVX, 98.4 µM (inactive); in the test with SK-OV-3 it was > 68.7 µM (inactive). Also, the GI50 in the test on SF-268 was > 83.4 µM (inactive); with SK-MEL-28, > 64.3 µM (inactive); in the test with 786-0, > 92.3 µM (inactive); in the test on SK-MEL-2, > 100 µM (inactive); with LXFL 529, 21.1 µM (inactive); in the test on M14, 45.1 µM (inactive). Also, the GI50 is 25.1 µM (inactive) in the test with CCRF-CEM and > 100 µM (inactive) in the test on SF-295.
As for `NC(=O)N=C(N(Cc1ccccc1)Cc1ccccc1)N(Cc1ccccc1)Cc1ccccc1`, the GI50 was > 20.3 µM (inactive) in the test with SK-MEL-5; > 100 µM (inactive) in the test on SR; 3.72 µM (inactive) with MDA-MB-435; 5.89 µM (inactive) in the test with LOX IMVI; 6.43 µM (inactive) with NCI-H522; > 24.4 µM (inactive) with ACHN. For the same molecule, the GI50 is > 100 µM (inactive) in the test on CAKI-1; > 100 µM (inactive) with K562; 8.02 µM (inactive) with RPMI-8226; 97.5 µM (inactive) with Hs-578T; > 100 µM (inactive) in the test on EKVX; > 58.7 µM (inactive) in the test with SK-OV-3. In addition, the GI50 is 37.2 µM (inactive) in the test with SF-268; > 100 µM (inactive) in the test with SK-MEL-28; 14.9 µM (inactive) with 786-0; > 100 µM (inactive) in the test on SK-MEL-2; 4.8 µM (inactive) with LXFL 529; > 100 µM (inactive) in the test with CCRF-CEM. For the same molecule, in the test on SF-295, the GI50 is 3.91 µM (inactive).
Turning to `COc1cc(NS(C)(=O)=O)ccc1Nc1c2ccccc2nc2ccccc12` [AMSACRINE], the 50% growth inhibitory concentration (GI50) with SK-MEL-5 is 0.319 µM (active); in the test with MDA-MB-435 it was 4.54 µM (inactive); in the test on LOX IMVI, 0.179 µM (active); with NCI-H522 it was 0.668 µM (active); in the test on ACHN, 0.0525 µM (active); in the test on CAKI-1, 0.0973 µM (active). The GI50 with K562 was 0.902 µM (active); in the test on RPMI-8226 it was 0.352 µM (active); with Hs-578T it was 1.79 µM (inactive); in the test on EKVX it was 2.08 µM (inactive); with SK-OV-3 it was 0.398 µM (active); in the test with SF-268, 0.415 µM (active). For the same molecule, the GI50 is 2.59 µM (inactive) in the test on SK-MEL-28; 0.15 µM (active) with 786-0; 3.7 µM (inactive) with SK-MEL-2; 3.32 µM (inactive) with LXFL 529; 0.266 µM (active) in the test with M14; 0.0561 µM (active) with CCRF-CEM. The GI50 in the test with SF-295 is 0.104 µM (active).

By GI50 is commonly meant the concentration giving 50% growth inhibition.
